Experimental data from ChEMBL document CHEMBL3885881, “DrugMatrix”.

Species: Rattus norvegicus
Test: DrugMatrix - Regimen: Daily Repeat
Format: toxicity, organism-based, Sprague-Dawley
Parameters: regimen Daily Repeat, gender Male, age 6-8 weeks
Settings: in vivo, po, route oral GAVAGE, vehicle 100 % WATER; for BASOPHIL / EOSINOPHIL / ERYTHROCYTE COUNT / HEMATOCRIT / HEMOGLOBIN / LEUKOCYTE COUNT / LYMPHOCYTE / MEAN CORPUSCULAR HEMOGLOBIN / MEAN CORPUSCULAR HEMOGLOBIN CONCENTRATION / MEAN CORPUSCULAR VOLUME / MONOCYTE / NEUTROPHIL / PLATELET COUNT: tissue Blood; for ALANINE AMINOTRANSFERASE / ALBUMIN / ALKALINE PHOSPHATASE / ASPARTATE AMINOTRANSFERASE / BLOOD UREA NITROGEN / CARBON DIOXIDE / CHLORIDE / CHOLESTEROL / CREATINE PHOSPHOKINASE / CREATININE / GLUCOSE / LACTATE DEHYDROGENASE / LIPASE / PHOSPHORUS / POTASSIUM / SODIUM / TOTAL BILIRUBIN / TOTAL PROTEIN / URIC ACID: tissue Plasma
[1] = 0 mg/kg, 96 h, dose level Control, time 4 day
[2] = 0 mg/kg, […], dose level Control, time 6 day
[3] = 0 mg/kg, […], dose level Control, time 14 day
[4] = […], 96 h, dose 1.6 mg/Kg, dose level High, time 4 day
[5] = […], dose 1.6 mg/Kg, dose level High, time 6 day
[6] = […], dose 1.6 mg/Kg, dose level High, time 14 day

O=[Se](=O)([O-])[O-].[Na+].[Na+] [SODIUM SELENATE]
BASOPHIL [1]: 0.47%
EOSINOPHIL [1]: 0.58%
ERYTHROCYTE COUNT [1]: 6.84 x10E6/uL
HEMATOCRIT [1]: 44.27%
HEMOGLOBIN [1]: 14.08 G/DL
LEUKOCYTE COUNT [1]: 13.39 x10E3/uL
LYMPHOCYTE [1]: 83.57%
MEAN CORPUSCULAR HEMOGLOBIN [1]: 20.57 pg
MEAN CORPUSCULAR HEMOGLOBIN CONCENTRATION [1]: 31.77 G/DL
MEAN CORPUSCULAR VOLUME [1]: 64.68 fL
MONOCYTE [1]: 1.92%
NEUTROPHIL [1]: 12.95%
PLATELET COUNT [1]: 1533.67 x10E3/uL
ALANINE AMINOTRANSFERASE [1]: 28.17 u/L
ALBUMIN [1]: 3.82 G/DL
ALKALINE PHOSPHATASE [1]: 354.33 u/L
ASPARTATE AMINOTRANSFERASE [1]: 73.83 u/L
BLOOD UREA NITROGEN [1]: 16 mg/dL
CARBON DIOXIDE [1]: 27.17 mmol/L
CHLORIDE [1]: 104.83 MEQ/L
CHOLESTEROL [1]: 83.33 mg/dL
CREATINE PHOSPHOKINASE [1]: 288 u/L
CREATININE [1]: 0.33 mg/dL
GLUCOSE [1]: 181.33 mg/dL
LACTATE DEHYDROGENASE [1]: 173.17 u/L
LIPASE [1]: 17.67 u/L
PHOSPHORUS [1]: 11.5 mg/dL
POTASSIUM [1]: 6.8 MEQ/L
SODIUM [1]: 147 MEQ/L
TOTAL BILIRUBIN [1]: 0.35 mg/dL
TOTAL PROTEIN [1]: 6.35 G/DL
URIC ACID [1]: 1.55 mg/dL
BASOPHIL [2]: 0.33%
EOSINOPHIL [2]: 0.85%
ERYTHROCYTE COUNT [2]: 6.98 x10E6/uL
HEMATOCRIT [2]: 38.58%
HEMOGLOBIN [2]: 14.25 G/DL
LEUKOCYTE COUNT [2]: 11.01 x10E3/uL
LYMPHOCYTE [2]: 85.07%
MEAN CORPUSCULAR HEMOGLOBIN [2]: 20.47 pg
MEAN CORPUSCULAR HEMOGLOBIN CONCENTRATION [2]: 31.45 G/DL
MEAN CORPUSCULAR VOLUME [2]: 64.9 fL
MONOCYTE [2]: 1.9%
NEUTROPHIL [2]: 11.42%
PLATELET COUNT [2]: 1289.67 x10E3/uL
BASOPHIL [3]: 0.52%
EOSINOPHIL [3]: 0.55%
ERYTHROCYTE COUNT [3]: 7.72 x10E6/uL
HEMATOCRIT [3]: 51.87%
HEMOGLOBIN [3]: 15.32 G/DL
LEUKOCYTE COUNT [3]: 16.2 x10E3/uL
LYMPHOCYTE [3]: 85.13%
MEAN CORPUSCULAR HEMOGLOBIN [3]: 19.85 pg
MEAN CORPUSCULAR HEMOGLOBIN CONCENTRATION [3]: 29.52 G/DL
MEAN CORPUSCULAR VOLUME [3]: 67.17 fL
MONOCYTE [3]: 1.7%
NEUTROPHIL [3]: 11.6%
PLATELET COUNT [3]: 1104.17 x10E3/uL
ALANINE AMINOTRANSFERASE [2]: 28.17 u/L
ALBUMIN [2]: 3.78 G/DL
ALKALINE PHOSPHATASE [2]: 385.33 u/L
ASPARTATE AMINOTRANSFERASE [2]: 78 u/L
BLOOD UREA NITROGEN [2]: 16.83 mg/dL
CARBON DIOXIDE [2]: 26.67 mmol/L
CHLORIDE [2]: 106.83 MEQ/L
CHOLESTEROL [2]: 82.67 mg/dL
CREATINE PHOSPHOKINASE [2]: 225.5 u/L
CREATININE [2]: 0.27 mg/dL
GLUCOSE [2]: 179.5 mg/dL
LACTATE DEHYDROGENASE [2]: 98.33 u/L
LIPASE [2]: 14.67 u/L
PHOSPHORUS [2]: 12.28 mg/dL
POTASSIUM [2]: 7.03 MEQ/L
SODIUM [2]: 150.33 MEQ/L
TOTAL BILIRUBIN [2]: 0.38 mg/dL
TOTAL PROTEIN [2]: 6.45 G/DL
URIC ACID [2]: 1.6 mg/dL
ALANINE AMINOTRANSFERASE [3]: 37 u/L
ALBUMIN [3]: 4.13 G/DL
ALKALINE PHOSPHATASE [3]: 342 u/L
ASPARTATE AMINOTRANSFERASE [3]: 71 u/L
BLOOD UREA NITROGEN [3]: 16.5 mg/dL
CARBON DIOXIDE [3]: 28.17 mmol/L
CHLORIDE [3]: 104 MEQ/L
CHOLESTEROL [3]: 70.67 mg/dL
CREATINE PHOSPHOKINASE [3]: 287.67 u/L
CREATININE [3]: 0.38 mg/dL
GLUCOSE [3]: 150.17 mg/dL
LACTATE DEHYDROGENASE [3]: 81.33 u/L
LIPASE [3]: 16 u/L
PHOSPHORUS [3]: 11.32 mg/dL
POTASSIUM [3]: 6.22 MEQ/L
SODIUM [3]: 147.33 MEQ/L
TOTAL BILIRUBIN [3]: 0.43 mg/dL
TOTAL PROTEIN [3]: 6.55 G/DL
URIC ACID [3]: 1.38 mg/dL
BASOPHIL [4]: 0.33%
EOSINOPHIL [4]: 0.73%
ERYTHROCYTE COUNT [4]: 6.6 x10E6/uL
HEMATOCRIT [4]: 40.23%
HEMOGLOBIN [4]: 12.93 G/DL
LEUKOCYTE COUNT [4]: 11.54 x10E3/uL
LYMPHOCYTE [4]: 85%
MEAN CORPUSCULAR HEMOGLOBIN [4]: 19.6 pg
MEAN CORPUSCULAR HEMOGLOBIN CONCENTRATION [4]: 32.13 G/DL
MEAN CORPUSCULAR VOLUME [4]: 60.97 fL
MONOCYTE [4]: 1.8%
NEUTROPHIL [4]: 11.6%
PLATELET COUNT [4]: 1460.67 x10E3/uL
ALANINE AMINOTRANSFERASE [4]: 31.33 u/L
ALBUMIN [4]: 3.73 G/DL
ALKALINE PHOSPHATASE [4]: 296.67 u/L
ASPARTATE AMINOTRANSFERASE [4]: 69.67 u/L
BLOOD UREA NITROGEN [4]: 16 mg/dL
CARBON DIOXIDE [4]: 24 mmol/L
CHLORIDE [4]: 107.67 MEQ/L
CHOLESTEROL [4]: 75.33 mg/dL
CREATINE PHOSPHOKINASE [4]: 411.33 u/L
CREATININE [4]: 0.4 mg/dL
GLUCOSE [4]: 170.67 mg/dL
LACTATE DEHYDROGENASE [4]: 107.33 u/L
LIPASE [4]: 18 u/L
PHOSPHORUS [4]: 11.1 mg/dL
POTASSIUM [4]: 6.2 MEQ/L
SODIUM [4]: 148.33 MEQ/L
TOTAL BILIRUBIN [4]: 0.4 mg/dL
TOTAL PROTEIN [4]: 6.2 G/DL
URIC ACID [4]: 1.3 mg/dL
BASOPHIL [5]: 0.27%
EOSINOPHIL [5]: 0.3%
ERYTHROCYTE COUNT [5]: 7.08 x10E6/uL
HEMATOCRIT [5]: 44.53%
HEMOGLOBIN [5]: 14.1 G/DL
LEUKOCYTE COUNT [5]: 12.82 x10E3/uL
LYMPHOCYTE [5]: 83.7%
MEAN CORPUSCULAR HEMOGLOBIN [5]: 19.97 pg
MEAN CORPUSCULAR HEMOGLOBIN CONCENTRATION [5]: 31.7 G/DL
MEAN CORPUSCULAR VOLUME [5]: 62.9 fL
MONOCYTE [5]: 2.23%
NEUTROPHIL [5]: 13.07%
PLATELET COUNT [5]: 1297.33 x10E3/uL
BASOPHIL [6]: 0.42%
EOSINOPHIL [6]: 0.92%
ERYTHROCYTE COUNT [6]: 8.04 x10E6/uL
HEMATOCRIT [6]: 52.44%
HEMOGLOBIN [6]: 15.34 G/DL
LEUKOCYTE COUNT [6]: 13.75 x10E3/uL
LYMPHOCYTE [6]: 84.4%
MEAN CORPUSCULAR HEMOGLOBIN [6]: 19.12 pg
MEAN CORPUSCULAR HEMOGLOBIN CONCENTRATION [6]: 29.26 G/DL
MEAN CORPUSCULAR VOLUME [6]: 65.28 fL
MONOCYTE [6]: 2.18%
NEUTROPHIL [6]: 11.62%
PLATELET COUNT [6]: 1231.6 x10E3/uL
ALANINE AMINOTRANSFERASE [5]: 33 u/L
ALBUMIN [5]: 4.03 G/DL
ALKALINE PHOSPHATASE [5]: 331 u/L
ASPARTATE AMINOTRANSFERASE [5]: 80 u/L
BLOOD UREA NITROGEN [5]: 16.33 mg/dL
CARBON DIOXIDE [5]: 23.67 mmol/L
CHLORIDE [5]: 108.67 MEQ/L
CHOLESTEROL [5]: 74.67 mg/dL
CREATINE PHOSPHOKINASE [5]: 413 u/L
CREATININE [5]: 0.37 mg/dL
GLUCOSE [5]: 182.67 mg/dL
LACTATE DEHYDROGENASE [5]: 123 u/L
LIPASE [5]: 8 u/L
PHOSPHORUS [5]: 12.5 mg/dL
POTASSIUM [5]: 6.73 MEQ/L
SODIUM [5]: 151.67 MEQ/L
TOTAL BILIRUBIN [5]: 0.37 mg/dL
TOTAL PROTEIN [5]: 6.83 G/DL
URIC ACID [5]: 1.77 mg/dL
ALANINE AMINOTRANSFERASE [6]: 40.4 u/L
ALBUMIN [6]: 4.2 G/DL
ALKALINE PHOSPHATASE [6]: 262.8 u/L
ASPARTATE AMINOTRANSFERASE [6]: 72.4 u/L
BLOOD UREA NITROGEN [6]: 16.4 mg/dL
CARBON DIOXIDE [6]: 27.4 mmol/L
CHLORIDE [6]: 104.4 MEQ/L
CHOLESTEROL [6]: 63.8 mg/dL
CREATINE PHOSPHOKINASE [6]: 181 u/L
CREATININE [6]: 0.42 mg/dL
GLUCOSE [6]: 154.8 mg/dL
LACTATE DEHYDROGENASE [6]: 91 u/L
LIPASE [6]: 11.6 u/L
PHOSPHORUS [6]: 11.26 mg/dL
POTASSIUM [6]: 6.38 MEQ/L
SODIUM [6]: 148.4 MEQ/L
TOTAL BILIRUBIN [6]: 0.4 mg/dL
TOTAL PROTEIN [6]: 6.72 G/DL
URIC ACID [6]: 1.52 mg/dL
